According to the NIST ThermoML archive (doi:10.1021/je0340755):

Assay: xn = mol fraction of the nth substance listed
Details: 101.3 kPa, Liquid; for viscosity: Capillary tube (Ostwald / Ubbelohde) method

OCCCCO [1,4-butanediol] + O
Details | mass density, 298.15 K [kg/m3] | speed of sound, 298.15 K [m/s] | viscosity, 298.15 K [mPa·s] | viscosity, 308.15 K [mPa·s]
x2 = 0.055 | 1013.64 | 1609 | 68.26 | 42.31
x2 = 0.1534 | 1015.1 | 1623.6 | 59.73 | 37.48
x2 = 0.2472 | 1016.59 | 1637.5 | 51.48 | 32.83
x2 = 0.3542 | 1018.46 | 1658.6 | 42.26 | 27.6
x2 = 0.4531 | 1020.08 | 1678.2 | 33.95 | 22.83
x2 = 0.498 | 1020.71 | 1686 | 30.26 | 20.69
x2 = 0.5578 | 1021.37 | 1695.3 | 25.51 | 17.9
x2 = 0.6513 | 1021.78 | 1707.7 | 18.65 | 13.72
x2 = 0.7496 | 1020.65 | 1715.9 | 12.57 | 9.702
x2 = 0.8475 | 1016.21 | 1702.6 | 7.83 | 6.132
x2 = 0.9081 | 1010.66 | 1663.1 | 5.31 | 4.059
x2 = 0.9152 | 1009.83 | 1655.8 | 5.014 | 3.816
x2 = 0.9253 | 1008.58 | 1644.1 | 4.588 | 3.469
x2 = 0.9355 | 1007.24 | 1630.7 | 4.148 | 3.115
x2 = 0.9543 | 1004.56 | 1601.1 | 3.3 | 2.45
x2 = 0.955 | 1004.46 | 1599.8 | 3.267 | 2.425
x2 = 0.9597 | 1003.74 | 1591.3 | 3.045 | –
x2 = 0.9699 | 1002.14 | 1571.1 | 2.544 | –
x2 = 0.9804 | 1000.42 | 1547.9 | 2.001 | –
x2 = 0.9901 | 998.77 | 1523.9 | 1.468 | –
x2 = 0.9924 | 998.37 | 1517.8 | 1.337 | –
x2 = 0.9955 | 997.83 | 1509.5 | 1.158 | –
